Test results as given in patent publication US20080306155A1, “METHOD FOR TREATING RENAL DISEASE” (priority 2004, published 2008).
“And” between values parts separate entries of the source, which are not always exact repeats. Equal values may be shown once.

Experiments:
Assay type in all cases: cell-based, rat
isolated glomeruli [1] = assay: Albumin permeability (Palb) of isolated glomeruli; details: 10 ng/ml
Protocol: Measurement of Albumin Permeability (Palb): Glomeruli were isolated using the sieving method as previously described in a medium containing 5 g/dl of bovine serum albumin (BSA). See, Sharma R, et al, Kidney Intl. 58:131-136 (2000); and Savin V, et al. J. Am. Soc. Nephrol. 3:1260-1269 (1992). In each experimental condition, Palb was determined from the change in glomerular volume (•V) after exchange of the bath with medium containing 1 g/dl albumin. Palb was calculated as 1−(•Vexperimental/•Vcontrol) where glomeruli from SD rats fed a normal-salt diet were used to provide the control value for each experiment. To verify that lack of •Vs in Dahl S rats were related to changes in Palb rather than to changes in mechanical properties of glomeruli, additional studies were performed in which the glomeruli were exposed to a 5% solution of high molecular weight dextran.
In other experiments, we examined the interaction of TGF-• and 20-HETE on Palb in glomeruli isolated from SD rats and Dahl S rats fed either a LS diet or a HS diet for 4 days. Glomeruli were preincubated with vehicle or TGF-•1 (10 ng/ml) for 15 minutes at 37° C. and changes in Palb were determined. Glomeruli were also pretreated with 5, 14-20-HEDE (WIT003) (1 μmol/L; Taisho Pharmaceutical; Tokyo, Japan) (Alonso-Galicia et al., supra; and Yu et al., supra), for 15 minutes at 37° C. and the Palb response to TGF-• 1 (10 ng/ml) was redetermined. A minimum of 5 glomeruli from each rat were studied, and the experiments were performed using •5 rats per treatment group.

isolated glomeruli [2] = assay: Albumin permeability (Palb) of isolated glomeruli; details: glomeruli from Dahl S rats fed HS diet for 7 days; 10 ng/ml
[3] = test system: glomerular production of 20-HETE; assay: LC/MS measurement of glomerular 20-HETE production
Protocol: Liquid Chromatography/Mass Spectroscopy measurement of glomerular 20-HETE production: Glomeruli (approximately 20 μg protein) were incubated in a 0.1 mol/L KPO4 buffer containing 1 mmol/L NADPH for 30 minutes at 37° C. in the presence and absence of TGF-•1 (10 ng/ml). Incubations were stopped by acidification with formic acid, homogenized, and the homogenate extracted with chloroform:methanol (2:1) after addition of 10 ng of internal standard, 14,15-epoxyeicosa-5(Z)-enoic-methyl sulfonylimide (EEZE). Samples were reconstituted in 50% acetonitrile, cleaned up using on online, reverse-phase high performance liquid chromatography (HPLC) trapping column, and then the HETEs and epoxyeicosatrienoic acids (EETs) in the samples were separated using an isocratic step gradient on an 18C—RP 2×250 mm microbore HPLC (BetaBasic18 150×21 3•m; Thermo Hypersil-Keystone; Bellefonte, Pa.) using a mobile phase consisting of acetonitrile:water:acetic acid (57:43:0.1) for 20 minutes to resolve the HETEs followed by acetonitrile:water:acetic acid (63:37:0.1) for 15 minutes to resolve the EETs. Samples were ionized using negative ion electrospray and the peaks eluting with a mass/charge ratio (m/z) of 319 (HETEs and EETs) or 323 (internal standard) were isolated and monitored in the selective ion mass spectroscopy (MS) mode using an Agilent LSD ion trap mass spectrometer (Agilent Technologies 1100; Santa Clara Calif.). The ratio of ion abundances in the peaks of interest (HETEs and EETs, m/z 319) versus that corresponding to the closely eluting internal standard (EEZE, m/z 323) were determined and compared with a standard curve generated over a range from 0.1 ng to 2 ng of 20-HETE and EETs with each batch of samples.

[4] = glomeruli pretreated with TGF-•1 10 ng/ml

## TGF-•1: transforming growth factor-beta 1, applied to isolated glomeruli at 10 ng/ml
Isolated glomeruli [1]; glomeruli from Dahl S rats fed HS diet for 4 days
  Palb after TGF-•1: 0.87±0.02
Isolated glomeruli [1]; glomeruli from Dahl S rats fed a LS diet
  Palb after TGF-•1: 0.75±0.01
Isolated glomeruli [1]; glomeruli from SD rats, 15 minutes, 37° C.
  Palb after TGF-•1: 0.60±0.02 and 0.56±0.02
Isolated glomeruli [2]
  effect on Palb: no effect
[3]; SD glomeruli with TGF-•1 10 ng/ml
  glomerular production of 20-HETE: 3.4±0.5 ·g/30 minutes/mg protein
[3]; [4]
  formation of 15-, 12- or 5-HETE or EETs: without affecting
  reduction of formation of 20-HETE: 97%
